“Also recorded” adds a separate entry of the source.
Assays:
MsbA [1] = target: T1, MsbA (Salmonella typhimurium, UniProt P63359); assay: ATPase activity of detergent solubilized MsbA, linked enzyme assay; type: biochemical
T1 construct: 23-residue pET19b fusion leader with deca-histidine tag (N); made in house; host or cells: E. coli BL21 (DE3)
Method: ATPase Activity. ATPase activity was measured using an ATP-regenerating system described by Vogel and Steinhart, and modified by Urbatsch et al. Briefly, 1 μg of MsbA was added to 100 μl of Linked Enzyme (LE) buffer at 37° C. containing 10 mM ATP, 12 mM MgCl2, 6 mM phosphoenolpyruvate (PEP), 1 mM NADH, 10 units of lactate dehydrogenase (LDH), 10 units of pyruvate kinase (PK), and 50 mM Tris-HCl, pH 7.5. ATP hydrolysis was measured as the decrease in absorbance of NADH at 340 nm using a DXT880 multiplate spectrofluorimeter (Beckman-Coulter). Activity of MsbA in the presence of either E. coli polar lipids (10 μg/ml) or a non-ABC, ATPase inhibitor cocktail (1 mM EGTA, 1 mM NaN3, 0.2 mM ouabain) was measured (FIGS. 28-30). Each data point is the average of 5 independent measurements with standard error bars shown.

MsbA [2] = target: MsbA (Escherichia coli, UniProt P60752); details: cited from earlier work
[3] = target: MsbA from Salmonella typhimurium (detergent solubilized, purified) (Salmonella typhimurium) (UniProt P63359); assay: cell-based or functional assay
P-gp = details: human and murine MDR cell lines; cited from earlier work
[4] = system: ΔacrAB E. coli cells overexpressing MsbA; assay: Doxorubicin retention in ΔacrAB E. coli cells overexpressing MsbA; type: cell-based; details: 0-100 μM PSC; change of fluorescence at 400 sec versus 0 sec; P<0.05
Method: Doxorubicin Retention. A pET 15b vector containing the msbA gene from Salmonella typhimurium LT2 was transformed into an E. coli strain deficient in the multiple-drug efflux pump AcrAB (ECΔacrAB). Single colony cultures were grown to optical density (OD600 nm) of 0.6 in the presence of 1 mM IPTG to induce overexpression of MsbA, harvested and washed three times with 100 mM potassium phosphate buffer (pH 7.5) containing 5 mM MgSO4 and concentrated to an OD600 of 20. Cellular accumulation of doxorubicin was accomplished by incubation of cells with 11.5 μM doxorubicin and 40 μM carbonyl cyanide m-chlorophenylhydrazone (CCCP) while shaking for 1 hour at 37° C. The cells were then washed three times and incubated for 15 minutes at 37° C. with 40 μM CCCP and 0, 1, 10, 25, 50 or 100 μM PSC. Efflux was initiated by addition of 25 mM glucose and fluorescence in the cell suspensions was monitored at 16-second time intervals with a DXT880 multiplate spectrofluorimeter (Beckman-Coulter) with excitation at 485 nm and emission at 595 nm for 900 seconds. […] Cellular doxorubicin retention was measured as a change of fluoresence at time=400 sec versus time=0 sec. […] Results are the average of 3 experiments, with 3-8 measurements per experiment. Statistical significance was assigned with the two-way analysis of variance (ANOVA). A P<0.05 is considered significant.

Wild type E. coli cells = assay: Doxorubicin retention in wild type E. coli cells; type: cell-based; details: 50 μM PSC
[5] = target: the molecule itself; assay: X-ray crystal structure of MsbA.ADP.Vi.Ra LPS, 4.2 Å

Sequence of MsbA (Escherichia coli, UniProt P60752) (P60752 whole entry, species assumed): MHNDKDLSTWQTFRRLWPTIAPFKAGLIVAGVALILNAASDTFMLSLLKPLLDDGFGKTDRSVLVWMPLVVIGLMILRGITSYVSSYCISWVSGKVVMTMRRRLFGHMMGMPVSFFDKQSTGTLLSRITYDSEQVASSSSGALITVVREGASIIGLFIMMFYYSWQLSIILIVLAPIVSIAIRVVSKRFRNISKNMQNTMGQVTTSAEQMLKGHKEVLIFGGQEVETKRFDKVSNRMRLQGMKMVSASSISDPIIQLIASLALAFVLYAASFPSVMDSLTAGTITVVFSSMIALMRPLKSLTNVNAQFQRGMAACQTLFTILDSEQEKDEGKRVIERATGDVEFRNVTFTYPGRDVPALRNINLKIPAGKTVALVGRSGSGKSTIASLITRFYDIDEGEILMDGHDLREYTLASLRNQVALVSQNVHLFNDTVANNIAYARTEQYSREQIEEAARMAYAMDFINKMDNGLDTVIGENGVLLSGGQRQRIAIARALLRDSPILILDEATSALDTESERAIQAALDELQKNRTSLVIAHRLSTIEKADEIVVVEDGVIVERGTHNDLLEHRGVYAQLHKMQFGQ

With COc1cccc2c1C(=O)c1c(O)c3c(c(O)c1C2=O)C[C@@](O)(C(=O)CO)C[C@@H]3O[C@H]1C[C@H](N)[C@H](O)[C@H](C)O1 [Doxorubicin, doxorubicin] as the molecule, how does the “effect on ATPase activity” value (MsbA [1]) read?
The value was “stimulates ATPase activity in a dose dependent manner”.

And the “concentration of maximum stimulation of ATPase activity” value (MsbA [1]; dose dependent stimulation)?
Its value is 100 µM.

For CCCCCCCCCCCCCC(=O)O[C@H](CCCCCCCCCCC)CC(=O)O[C@@H]1[C@@H](NC(=O)C[C@@H](CCCCCCCCCCC)OC(=O)CCCCCCCCCCC)[C@H](OC[C@H]2O[C@H](OP(=O)(O)O)[C@H](NC(=O)C[C@H](O)CCCCCCCCCCC)[C@@H](OC(=O)C[C@H](O)CCCCCCCCCCC)[C@@H]2O)O[C@H](CO[C@]2(C(=O)O)C[C@@H](O[C@]3(C(=O)O)C[C@@H](O)[C@@H](O)[C@@H]([C@H](O)CO)O3)[C@@H](O)[C@@H]([C@H](O)CO)O2)[C@H]1OP(=O)(O)O [Kdo2-lipid A], which “stimulatory effect on ATP activity of MsbA” value (MsbA [2]; compared with Ra LPS) is on record?
Its value is “larger stimulatory effect”.

With “PSC-833, [3'-Desoxy-3'-oxo-MeBmt]1-[Val]2-Ciclosporin (peptide)” as the molecule, how does the ATPase activity of detergent solubilized MsbA (linked enzyme assay) (% over basal activity) [3] read?
Its ATPase activity of detergent solubilized MsbA (linked enzyme assay) (% over basal activity) is under 55.

For lipid A, which “stimulation of MsbA ATPase” value (MsbA [2]; studies in vitro) is on record?
Its value is “specifically stimulated”.

Which “inhibition of P-gp mediated drug accumulation” value (P-gp) does the source give for C/C=C/C[C@@H](C)C(=O)[C@H]1C(=O)N[C@@H](C(C)C)C(=O)N(C)CC(=O)N(C)[C@@H](CC(C)C)C(=O)N[C@@H](C(C)C)C(=O)N(C)[C@@H](CC(C)C)C(=O)N[C@@H](C)C(=O)N[C@H](C)C(=O)N(C)[C@@H](CC(C)C)C(=O)N(C)[C@@H](CC(C)C)C(=O)N(C)[C@@H](C(C)C)C(=O)N1C [PSC, [3′-Desoxy-3′-oxo-MeBmt]^1-[Val]^2-Ciclosporin] here?
Its value is “potent inhibitor”.

And the doxorubicin retention [4]?
Its doxorubicin retention is “alters the retention of doxorubicin; also recorded: mediates doxorubicin retention”.

What about the “increase in doxorubicin retention” value (Wild type E. coli cells) of the same molecule?
Its value is “less than 10%”.

What about the “stimulation of ATPase over basal activity” value (MsbA [1]; PSC at concentrations of 50-250 μM, basal activity 1.25 μmol ATP/min/mg of protein) of the same molecule?
Its value is “up to 55%”.

And the “effect on MsbA ATPase activity” value (MsbA [1]; concentrations less than 50 μM)?
The value was “modulated”.

What about the “effect on doxorubicin stimulated ATPase activity of MsbA” value (MsbA [1]; doxorubicin stimulated) of the same molecule?
The value was “modulates doxorubicin stimulated ATPase activity”.

B1: MsbA from Salmonella typhimurium (detergent solubilized, purified) (other)
chain: MHNDKDLSTWQTFRRLWPTIAPFKAGLIVAGIALILNAASDTFMLSLLKPLLDDGFGKTDRSVLLWMPLVVIGLMILRGITSYISSYCISWVSGKVVMTMRRRLFGHMMGMPVAFFDKQSTGTLLSRITYDSEQVASSSSGALITVVREGASIIGLFIMMFYYSWQLSIILVVLAPIVSIAIRVVSKRFRSISKNMQNTMGQVTTSAEQMLKGHKEVLIFGGQEVETKRFDKVSNKMRLQGMKMVSASSISDPIIQLIASLALAFVLYAASFPSVMDSLTAGTITVVFSSMIALMRPLKSLTNVNAQFQRGMAACQTLFAILDSEQEKDEGKRVIDRATGDLEFRNVTFTYPGREVPALRNINLKIPAGKTVALVGRSGSGKSTIASLITRFYDIDEGHILMDGHDLREYTLASLRNQVALVSQNVHLFNDTVANNIAYARTEEYSREQIEEAARMAYAMDFINKMDNGLDTIIGENGVLLSGGQRQRIAIARALLRDSPILILDEATSALDTESERAIQAALDELQKNRTSLVIAHRLSTIEQADEIVVVEDGIIVERGTHSELLAQHGVYAQLHKMQFGQ
notes: also called ST-MsbA; ABC Transporter MsbA
Does B1 bind [5]?
Result: binds

— patent US20070105085A1 (Scripps Research, published 2007)
